{"source": "patent US20050118287A1", "about": "“Use of a vanilloid as an anti-snoring element” (LMD, priority 2002, published 2005)", "tested_on": "snoring", "assay": "Activity of the shogaol on snoring in a panel of men and women", "format": "in vivo", "conditions": "daily doses corresponding to 20 mg of shogaol", "experimental": "Daily doses corresponding to 20 mg of shogaol taken in the form of an extract according to example 1 or 2 or of pure shogaol according to example 3 were administered to a panel of men and women. The effects manifest themselves after 48 hours of treatment and persist for 48 hours after stopping the latter. […] Without being bound by theory, it appears that the effect of this molecule and of other vanilloids should be linked to their involvement in emission by certain nociceptive neurons of a neurotransmitter, substance P.", "data": [{"substance": "shogaol", "values": [{"measurement": "persistence of the effects after stopping treatment", "result": 48, "unit": "h"}, {"measurement": "time of treatment after which the effects manifest themselves", "result": 48, "unit": "h"}, {"measurement": "effect on snoring in the user", "setting": "taken as extract according to example 1 or 2 or pure shogaol according to example 3", "result": "considerably reduces snoring"}]}]}
